Read-outs that look alike come from different tables or passages of the source. Numbered stars: 1 amine (or outer) side, 2 acyl side, 3 side chain; on linkers, the order of the positions; unused ones are H or OH. Square brackets hold non-standard residues; d marks the D form. Side chains are listed from the residue outwards. Peptide text beside a SMILES is read from it. * marks the point of attachment. γGlu = O=C(O)[C@H](CCC(=O)[*:2])N[*:1]; αMeF = C[C@](N)(Cc1ccccc1)C(=O)O; αMeK = C[C@](N)(CCCCN)C(=O)O; Lauroyl = CCCCCCCCCCCC(=O)*; αMeS = C[C@](N)(CO)C(=O)O; AEEA = NCCOCCOCC(=O)O; Aib = CC(C)(N)C(=O)O
Key:
Assay type in all cases: cell-based
[1] = target: T1, human GLP-1 receptor (GLP-1R) (Homo sapiens, UniProt P43220); assay: cAMP assay, human GLP-1R cells
T1 construct: expressed in transfected cells
In short: (§1)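 Peptide-stimulated cAMP measured by two-step HTRF after a 30 min room-temperature incubation with receptor-expressing cells (hGLP-1R, hGIPR at 1×10^5 cells/ml; hGCGR at 2×10^5 cells/ml). Duplicate dilutions; EC50 from 4-parameter logistic fit of % Delta F.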

[2] = target: T2, human glucagon receptor (GCGR) (Homo sapiens, UniProt P47871); assay: cAMP assay, human GCGR cells
T2 construct: expressed in transfected cells
In short: as §1

[3] = target: T3, human glucose-dependent insulinotropic peptide receptor (GIPR) (Homo sapiens, UniProt P48546); assay: cAMP assay, human GIPR cells
T3 construct: expressed in transfected cells
T3 sequence (P48546 22-466): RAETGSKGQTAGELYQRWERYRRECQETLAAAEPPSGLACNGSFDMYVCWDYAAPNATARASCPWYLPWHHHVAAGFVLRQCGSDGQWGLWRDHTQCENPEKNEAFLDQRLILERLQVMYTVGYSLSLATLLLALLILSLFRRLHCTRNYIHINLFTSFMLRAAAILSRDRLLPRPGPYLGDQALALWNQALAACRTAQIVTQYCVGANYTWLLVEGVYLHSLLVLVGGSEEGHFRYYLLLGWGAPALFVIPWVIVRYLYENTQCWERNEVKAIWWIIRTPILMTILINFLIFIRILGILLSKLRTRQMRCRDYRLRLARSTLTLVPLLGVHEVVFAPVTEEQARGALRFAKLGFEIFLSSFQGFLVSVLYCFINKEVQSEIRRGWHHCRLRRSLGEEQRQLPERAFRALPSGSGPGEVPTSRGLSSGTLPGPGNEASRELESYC
In short: as §1

[4] = tris-lipidated peptides, mean of n1 and n2, read-out: Primary assay EC50 Mean pM GLP-1R
[5] = tris-lipidated peptides, replicate n1, read-out: Primary assay EC50 GLP-1R n1
[6] = tris-lipidated peptides, replicate n2, read-out: Primary assay EC50 GLP-1R n2
[7] = tris-lipidated peptides, second replicate, read-out: Primary assay EC50 Gluc-R (n2)
[8] = tris-lipidated peptides, first replicate, read-out: Primary assay EC50 GIP-R (n1)
[9] = cAMP assay, first determination (n1), read-out: Primary assay EC50 GLP-1R n1
[10] = cAMP assay, second determination (n2), read-out: Primary assay EC50 GLP-1R n2
[11] = mean of n1 and n2, read-out: Mean pM GLP-1R
[12] = cAMP assay, first determination (n1), read-out: Primary assay EC50 Gluc-R (n1)
[13] = cAMP assay, second determination (n2), read-out: Primary assay EC50 Gluc-R (n2)
[14] = cAMP assay, first determination (n1), read-out: Primary assay EC50 GIP-R (n1)
[15] = cAMP assay, second determination (n2), read-out: Primary assay EC50 GIP-R (n2)

T1 sequence (P43220 24-463): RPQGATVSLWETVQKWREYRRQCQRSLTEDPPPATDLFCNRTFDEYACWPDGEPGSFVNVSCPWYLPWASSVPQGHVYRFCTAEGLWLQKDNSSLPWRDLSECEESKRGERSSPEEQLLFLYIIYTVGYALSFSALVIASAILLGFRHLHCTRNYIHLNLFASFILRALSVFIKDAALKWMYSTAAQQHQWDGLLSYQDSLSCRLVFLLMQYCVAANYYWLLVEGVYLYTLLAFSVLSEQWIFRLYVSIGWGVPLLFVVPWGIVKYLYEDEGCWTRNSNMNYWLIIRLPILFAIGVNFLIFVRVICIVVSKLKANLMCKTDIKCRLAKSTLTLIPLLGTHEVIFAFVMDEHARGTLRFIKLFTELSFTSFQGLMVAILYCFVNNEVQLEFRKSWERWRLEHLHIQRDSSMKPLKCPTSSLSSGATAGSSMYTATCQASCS
T2 sequence (P47871 26-477): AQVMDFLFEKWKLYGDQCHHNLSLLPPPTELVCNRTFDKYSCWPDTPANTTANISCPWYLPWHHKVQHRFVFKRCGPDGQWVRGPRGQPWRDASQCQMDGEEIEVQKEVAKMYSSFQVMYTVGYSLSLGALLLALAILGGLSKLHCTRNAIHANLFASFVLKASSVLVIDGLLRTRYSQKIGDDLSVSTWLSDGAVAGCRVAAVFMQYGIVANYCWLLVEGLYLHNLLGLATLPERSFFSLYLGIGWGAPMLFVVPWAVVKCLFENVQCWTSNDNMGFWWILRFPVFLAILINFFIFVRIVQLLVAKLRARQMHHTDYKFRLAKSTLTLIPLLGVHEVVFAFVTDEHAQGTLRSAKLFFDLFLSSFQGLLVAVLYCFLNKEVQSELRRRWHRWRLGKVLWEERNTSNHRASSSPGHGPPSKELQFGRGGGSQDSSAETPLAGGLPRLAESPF

SMILES | EC50 [1, 4] | EC50 [1, 5] | EC50 [1, 6] | EC50 [2, 7] | EC50 ([3]; tris-lipidated peptides, second replicate, read-out: Primary assay EC50 GIP-R (n2)) | EC50 [3, 8] | EC50 [1, 9] | EC50 [1, 10] | EC50 [1, 11] | EC50 [2, 12] | EC50 [2, 13] | EC50 [3, 14] | EC50 [3, 15] | EC50 ([2]; Primary assay EC50 Gluc-R (n1), cAMP assay, first determination (n1)) | EC50 ([2]; read-out: Primary assay EC50 Gluc-R (n2), cAMP assay, second determination (n2)) | EC50 ([3]; Primary assay EC50 GIP-R (n1), cAMP assay, first determination (n1)) | EC50 ([3]; read-out: Primary assay EC50 GIP-R (n2), cAMP assay, second determination (n2))
CCCCCCCCCCCC(=O)N[C@@H](CCC(=O)NCCOCCOCC(=O)NCCOCCOCC(=O)NCCCC[C@H](NC(=O)[C@H](CCC(=O)O)NC(=O)CNC(=O)[C@H](CCC(=O)O)NC(=O)[C@H](CC(C)C)NC(=O)[C@H](Cc1ccc(O)cc1)NC(=O)[C@H](CO)NC(=O)[C@H](CO)NC(=O)[C@H](CCCCNC(=O)COCCOCCNC(=O)COCCOCCNC(=O)CC[C@H](NC(=O)CCCCCCCCCCC)C(=O)O)NC(=O)[C@H](CC(=O)O)NC(=O)[C@H](CO)NC(=O)[C@@H](NC(=O)[C@](C)(Cc1ccccc1)NC(=O)[C@H](CO)NC(=O)CNC(=O)[C@H](CCC(=O)O)NC(=O)C(C)(C)NC(=O)[C@@H](N)Cc1c[nH]cn1)[C@@H](C)O)C(=O)N[C@@H](C)C(=O)N[C@@](C)(CCCCN)C(=O)N[C@@H](CCC(=O)O)C(=O)N[C@@H](Cc1ccccc1)C(=O)N[C@H](C(=O)N[C@@H](C)C(=O)N[C@@H](Cc1ccccc1)C(=O)N[C@@H](CCCCNC(=O)COCCOCCNC(=O)COCCOCCNC(=O)CC[C@H](NC(=O)CCCCCCCCCCC)C(=O)O)C(=O)N[C@H](C(=O)N[C@@H](CCC(=O)O)C(=O)NCC(=O)NCC(N)=O)C(C)C)[C@@H](C)CC)C(=O)O [compound 473] (H-H[Aib]EGS[αMeF]TSDK([AEEA-AEEA-γGlu-Lauroyl])SSYLEGEK([AEEA-AEEA-γGlu-Lauroyl])A[αMeK]EFIAFK([AEEA-AEEA-γGlu-Lauroyl])VEGG-NH2; N-terminus assumed) | 434 pM | 399 pM | 470 pM | 19.6 nM | 19.6 nM | – | – | – | – | – | – | – | – | – | – | – | –
CCCCCCCCCCCC(=O)N[C@@H](CCC(=O)NCCOCCOCC(=O)NCCOCCOCC(=O)NCCCC[C@H](NC(=O)[C@H](CCC(=O)O)NC(=O)CNC(=O)[C@H](CCC(=O)O)NC(=O)[C@H](CCCCNC(=O)COCCOCCNC(=O)COCCOCCNC(=O)CC[C@H](NC(=O)CCCCCCCCCCC)C(=O)O)NC(=O)[C@H](Cc1ccc(O)cc1)NC(=O)[C@H](CO)NC(=O)[C@](C)(CO)NC(=O)[C@@H](NC(=O)[C@H](CC(=O)O)NC(=O)[C@H](CO)NC(=O)[C@@H](NC(=O)[C@](C)(Cc1ccccc1)NC(=O)[C@H](CO)NC(=O)CNC(=O)[C@H](CCC(=O)O)NC(=O)C(C)(C)NC(=O)[C@@H](N)Cc1c[nH]cn1)[C@@H](C)O)C(C)C)C(=O)N[C@@H](C)C(=O)N[C@@](C)(CCCCN)C(=O)N[C@@H](CCC(=O)O)C(=O)N[C@@H](Cc1ccccc1)C(=O)N[C@H](C(=O)N[C@@H](CCCCNC(=O)COCCOCCNC(=O)COCCOCCNC(=O)CC[C@H](NC(=O)CCCCCCCCCCC)C(=O)O)C(=O)N[C@@H](Cc1ccccc1)C(=O)N[C@H](C(=O)N[C@H](C(=O)N[C@@H](CCC(=O)O)C(=O)NCC(=O)NCC(N)=O)C(C)C)C(C)C)[C@@H](C)CC)C(=O)O [compound 453] (H-H[Aib]EGS[αMeF]TSDV[αMeS]SYK([AEEA-AEEA-γGlu-Lauroyl])EGEK([AEEA-AEEA-γGlu-Lauroyl])A[αMeK]EFIK([AEEA-AEEA-γGlu-Lauroyl])FVVEGG-NH2) | 114 pM | 62.9 pM | 165 pM | 19.5 nM | – | 19.5 nM | – | – | – | – | – | – | – | – | – | – | –
CCCCCCCCCCCC(=O)N[C@@H](CCC(=O)N[C@@H](CCC(=O)N[C@@H](CCC(=O)NCCCC[C@H](NC(=O)[C@H](C)NC(=O)[C@H](C)NC(=O)[C@H](CCC(=O)O)NC(=O)CNC(=O)[C@H](CCC(=O)O)NC(=O)[C@H](CC(C)C)NC(=O)[C@](C)(Cc1ccccc1)NC(=O)[C@H](CO)NC(=O)[C@](C)(CO)NC(=O)[C@@H](NC(=O)[C@H](CC(=O)O)NC(=O)[C@H](CO)NC(=O)[C@@H](NC(=O)[C@](C)(Cc1ccccc1)NC(=O)[C@H](CO)NC(=O)CNC(=O)[C@H](CCC(=O)O)NC(=O)C(C)(C)NC(=O)[C@@H](N)Cc1c[nH]cn1)[C@@H](C)O)C(C)C)C(=O)N[C@@H](CCC(=O)O)C(=O)N[C@@](C)(Cc1ccccc1)C(=O)N[C@H](C(=O)N[C@@H](C)C(=O)N[C@@](C)(Cc1ccccc1)C(=O)N[C@H](C(=O)N[C@H](C(=O)N[C@@](C)(CCCCN)C(=O)NCC(=O)NCC(N)=O)C(C)C)C(C)C)[C@@H](C)CC)C(=O)O)C(=O)O)C(=O)O [compound 130] | – | – | – | – | – | – | 16 pM | 13 pM | 14.4 pM | ≥ 26 nM | ≥ 26 nM | ≥ 26 nM | ≥ 26 nM | – | – | – | –
CCCCCCCCCCCC(=O)N[C@@H](CCC(=O)NCCOCCOCC(=O)NCCOCCOCC(=O)NCCCC[C@H](NC(=O)CNC(=O)[C@H](CCC(=O)O)NC(=O)[C@H](CCCCNC(=O)COCCOCCNC(=O)COCCOCCNC(=O)CC[C@H](NC(=O)CCCCCCCCCCC)C(=O)O)NC(=O)[C@H](Cc1ccc(O)cc1)NC(=O)[C@H](CO)NC(=O)[C@](C)(CO)NC(=O)[C@@H](NC(=O)[C@H](CC(=O)O)NC(=O)[C@H](CO)NC(=O)[C@@H](NC(=O)[C@](C)(Cc1ccccc1)NC(=O)[C@H](CO)NC(=O)CNC(=O)[C@H](CCC(=O)O)NC(=O)C(C)(C)NC(=O)[C@@H](N)Cc1c[nH]cn1)[C@@H](C)O)C(C)C)C(=O)N[C@@H](C)C(=O)N[C@@H](C)C(=O)N[C@@](C)(CCCCN)C(=O)N[C@@H](CCC(=O)O)C(=O)N[C@@H](Cc1ccccc1)C(=O)N[C@H](C(=O)N[C@@H](C)C(=O)N[C@@H](CCCCNC(=O)COCCOCCNC(=O)COCCOCCNC(=O)CC[C@H](NC(=O)CCCCCCCCCCC)C(=O)O)C(=O)N[C@H](C(=O)N[C@H](C(=O)N[C@@H](CCC(=O)O)C(=O)NCC(=O)NCC(N)=O)C(C)C)C(C)C)[C@@H](C)CC)C(=O)O [compound 468] (H-H[Aib]EGS[αMeF]TSDV[αMeS]SYK([AEEA-AEEA-γGlu-Lauroyl])EGK([AEEA-AEEA-γGlu-Lauroyl])AA[αMeK]EFIAK([AEEA-AEEA-γGlu-Lauroyl])VVEGG-NH2) | 73.5 pM | 62.4 pM | 84.5 pM | 20 nM | – | 20 nM | – | – | – | – | – | – | – | – | – | – | –
CC[C@H](C)[C@H](NC(=O)[C@](C)(Cc1ccccc1)NC(=O)[C@H](CCC(=O)O)NC(=O)[C@H](CCCCNC(=O)COCCOCCNC(=O)COCCOCCNC(=O)COCCOCCNC(=O)CCCCCCCCCCCOc1ccc(C(=O)O)cc1)NC(=O)[C@H](C)NC(=O)[C@H](C)NC(=O)[C@H](CCC(=O)O)NC(=O)CNC(=O)[C@H](CCC(=O)O)NC(=O)[C@H](CC(C)C)NC(=O)[C@](C)(Cc1ccccc1)NC(=O)[C@H](CO)NC(=O)[C@](C)(CO)NC(=O)[C@@H](NC(=O)[C@H](CC(=O)O)NC(=O)[C@H](CO)NC(=O)[C@@H](NC(=O)[C@](C)(Cc1ccccc1)NC(=O)[C@H](CO)NC(=O)CNC(=O)[C@H](CCC(=O)O)NC(=O)C(C)(C)NC(=O)[C@@H](N)Cc1c[nH]cn1)[C@@H](C)O)C(C)C)C(=O)N[C@@H](C)C(=O)N[C@@](C)(Cc1ccccc1)C(=O)N[C@H](C(=O)N[C@H](C(=O)N[C@@](C)(CCCCN)C(=O)NCC(=O)NCC(N)=O)C(C)C)C(C)C [compound 145] | – | – | – | – | – | – | 27 pM | 15 pM | 21 pM | – | – | – | – | ≥ 25 nM | ≥ 25 nM | ≥ 25 nM | ≥ 25 nM
CC[C@H](C)[C@H](NC(=O)[C@H](Cc1ccccc1)NC(=O)[C@H](CCC(=O)O)NC(=O)[C@H](CCCCN)NC(=O)[C@H](C)NC(=O)[C@H](C)NC(=O)[C@H](CCC(N)=O)NC(=O)CNC(=O)[C@H](CCC(=O)O)NC(=O)[C@H](CC(C)C)NC(=O)[C@H](Cc1ccc(O)cc1)NC(=O)[C@H](CO)NC(=O)[C@H](CO)NC(=O)[C@@H](NC(=O)[C@H](CC(=O)O)NC(=O)C(C)(C)NC(=O)[C@@H](NC(=O)[C@H](Cc1ccccc1)NC(=O)[C@@H](NC(=O)CNC(=O)[C@H](CCC(=O)O)NC(=O)C(C)(C)NC(=O)[C@@H](N)Cc1c[nH]cn1)[C@@H](C)O)[C@@H](C)O)C(C)C)C(=O)N[C@@H](C)C(=O)N[C@@H](Cc1c[nH]c2ccccc12)C(=O)N[C@@H](CC(C)C)C(=O)N[C@H](C(=O)N[C@@H](CCCCN)C(=O)NCC(=O)N[C@@H](CCCNC(=N)N)C(N)=O)C(C)C [compound 20] (H-H[Aib]EGTFT[Aib]DVSSYLEGQAAKEFIAWLVKGR-NH2) | – | – | – | – | – | – | 15000 pM | 12000 pM | 13500 pM | ≥ 290 nM | ≥ 290 nM | ≥ 290 nM | ≥ 290 nM | – | – | – | –

Reference: US10414811B2, “Protease-resistant lipidated GLP-1 analogs” (MEDIMMUNE LIMITED, priority 2015, dated 2019)
